The subject of the assay is white spruce somatic embryos. The assay can be described thus: Liquid maturation pretreatments with ABA and PEG, number of mature embryos (Example 7). The class given is cell-based. The protocol:
Experiments were established to determine whether increasing ABA and water stress can be applied early in maturation. Somatic embryos in liquid maintenance suspension culture were transferred to liquid culture medium containing 1/20 of the strength of hormones in the preculture medium for 7 days. Seven treatments were prepared using these cultures as outlined below.
Starting water potential was 112 mmol/kg, and all preculture media contained 1/20 strength 2,4-D and BA that were present in the proliferation medium. Following these treatments, a 20% suspension was prepared and the embryos were plated onto solidified maturation medium containing PEG adjusted to 290 mmol/kg with PEG and 20 μM ABA.
Experiments were repeated at least three times and three replicates were prepared per treatment. Cultures were transferred to fresh medium every two weeks. Alternatively, to determine if PEG/ABA liquid maturation treatments modified the optimal starting water potential, the embryos were plated from the nine treatments to medium containing ABA at 20 μM and PEG at 290 or 380 mmol/kg. Additionally, to determine if PEG/ABA liquid maturation treatments modified the optimal starting ABA concentration, the embryos were plated from the nine treatments to medium containing PEG at 337 mmol/kg and ABA at 20 or 40 μM. Cultures were transferred to fresh medium every two weeks. After six weeks, the number of embryos developing per 0.75 mL starting inoculum was recorded. It can be seen from FIG. 3 that all treatments in which PEG and ABA were added gave an improvement over the control. Previous experiments had shown that the control ( 1/20 of the hormones present in the proliferation medium) yielded almost four times the number of mature embryos compared to no pretreatment (i e., full hormone treatment), and almost three times the number of mature embryos compared to culture in hormone-free preculture medium (i e., means of 154, 41, and 58 mature embryos per replicate, respectively). […] The best treatments were those that contained additions of both PEG and ABA. […]

Structures are written as SMILES.

In the case of `CC1=CC(=O)CC(C)(C)[C@@]1(O)/C=C/C(C)=C\C(=O)O` [ABA, abscisic acid], under “optimal liquid treatments, PEG 337 mmol/kg, 20 or 40 μM tested, FIG. 4”, the “best starting concentration of ABA in solidified maturation medium” value turned out to be 20 µM. Further, the “embryos per milliliter of starting inoculum” value (treatment 8: PEG and ABA added in steps at days 3 and 5) is recorded as “over 280 embryos per milliliter”. The “average number of mature embryos” value (treatment 8: PEG and ABA added in steps at days 3 and 5 of liquid culture, per 0.75 mL inoculum) is “about 224 mature embryos per replicate”.
